This is an account of results in patent US20230399358A1, “IMMUNOGLOBULIN PURIFICATION PEPTIDES AND THEIR USE” (North Carolina State University, priority 2019, published 2023).

Non-standard residues stand in square brackets, D forms with d. No end group written: not given here. Cit = NC(=O)NCCC[C@H](N)C(=O)O; Nle = CCCC[C@H](N)C(=O)O

In one assay the test system is human IgG.
Assay: not given
The settings on record: peptide on Toyopearl AF-amino-650M, 30 min, room temperature. It counts as binding. How it is done: (§1) Measurement of IgG binding by peptide-based chromatographic adsorbents: For initial studies, 35 mg of MWRGWQ (SEQ ID NO:2)-Toyopearl, RHLGWF (SEQ ID NO:3)-Toyopearl, WQRHGI (SEQ ID NO:1)-Toyopearl, GWLHQR (SEQ ID NO:4)-Toyopearl, and HWRGWV (SEQ ID NO:18)-Toyopearl (control) resins were equilibrated in PBS pH 7.4, reaching a swollen volume of 0.1 mL, and subsequently incubated with 1 mg/mL IgG in 0.205 mg/mL CHO cell culture supernatant for 30 minutes. The resins were subsequently washed several times with PBS to remove non-specifically bound proteins. Elution was performed with 100 mM glycine buffer pH 2.5. Flowthrough and elution fractions were collected and analyzed by SDS PAGE under reducing conditions. The resulting gels were stained with Coomassie staining. Further, 25 mg of the adsorbents MWRGWQ (SEQ ID NO:2)-Toyopearl, NIFRGWQ (SEQ ID NO:21)-Toyopearl, MWRAWQ (SEQ ID NO:5)-Toyopearl, MWRGFQ (SEQ ID NO:7)-Toyopearl, MWRGWN (SEQ ID NO:22)-Toyopearl, (NorL) WRGWQ (SEQ ID NO:23)-Toyopearl, MGRGWQ (SEQ ID NO:24)-Toyopearl, MWRWQ (SEQ ID NO:6)-Toyopearl, MWRGGQ (SEQ ID NO:26)-Toyopearl, GWRGWQ (SEQ ID NO:8)-Toyopearl, WQRHGI (SEQ ID NO:1)-Toyopearl, WNRHGI (SEQ ID NO:12)-Toyopearl, WQRAGI (SEQ ID NO:28)-Toyopearl, WQRHAI (SEQ ID NO:11)-Toyopearl, WQRHGL (SEQ ID NO:9)-Toyopearl, FQRHGI (SEQ ID NO:29)-Toyopearl, and WQRHGV (SEQ ID NO:10)-Toyopearl resins were equilibrated in PBS pH 7.4, reaching a swollen volume of 0.1 mL, and subsequently incubated with 1 mg/mL IgG in PBS at pH 7.4 for 30 minutes. The amount of unbound IgG in the supernatant samples was quantified by Bradford assay and utilized to determine the IgG binding % by the peptide variants.
A limited library of residue-by-residue changes confirmed the importance of each residue in peptides WQRHGI (SEQ ID NO:1) and MWRGWQ (SEQ ID NO:2) in reducing the binding energy between the peptide and the IgG target. […] This was accomplished by designing and constructing an ensemble of 20 variants of peptides WQRHGI (SEQ ID NO:1) and MWRGWQ (SEQ ID NO:2). Selected residues in positions 1-6 were mutated. The peptide variants were synthesized directly on Toyopearl AF-amino-650M resin via Fmoc/tBu chemistry. The resulting adsorbents were incubated with a solution of human IgG at 2 mg/mL at a ratio of 1 mL of resin per 3.5 mL of solution for 30 min at room temperature. The residual concentration of IgG in solution was determined by Bradford concentration assay of the supernatants and utilized to calculate the amounts of bound IgG per volume of resin; Table 7 reports the % binding, defined as mg IgG bound by variant/mg IgG bound by original sequence (either WQRHGI (SEQ ID NO:1) or MWRGWQ (SEQ ID NO:2))×100%, of each sequence variant.
“(NorL)WRGWQ ([Nle]WRGWQ) [ΛWRGWQ, Λ represents Nor-Leucine]”: the “% Binding (mg IgG bound by variant/mg IgG bound by original sequence × 100%)” value is 74.66%.

Consider FQRHGI, for which the “% Binding (mg IgG bound by variant/mg IgG bound by original sequence × 100%)” value is 37.18%.

As for GWRGWQ, the “% Binding (mg IgG bound by variant/mg IgG bound by original sequence × 100%)” value was 78.37%.

On to MFRGWQ, for which the “% Binding (mg IgG bound by variant/mg IgG bound by original sequence × 100%)” value amounted to 56.75%.

Turning to MGRGWQ, the “% Binding (mg IgG bound by variant/mg IgG bound by original sequence × 100%)” value is given as “Undetected”.

As to MW(Cit)GWQ (MW[Cit]GWQ) [MWχGWQ], the “% Binding (mg IgG bound by variant/mg IgG bound by original sequence × 100%)” value came to 0.48%.

In the case of MWRAWQ, the “% Binding (mg IgG bound by variant/mg IgG bound by original sequence × 100%)” value came to 96.96%.

As for MWRGFQ [MWRGEQ], the “% Binding (mg IgG bound by variant/mg IgG bound by original sequence × 100%)” value came out at 89.19%.

As for MWRGGQ, the “% Binding (mg IgG bound by variant/mg IgG bound by original sequence × 100%)” value was found to be 26.00%.

Turning to MWRGWN, the “% Binding (mg IgG bound by variant/mg IgG bound by original sequence × 100%)” value is reported as 18.90%.

In the case of MWRWQ, the “% Binding (mg IgG bound by variant/mg IgG bound by original sequence × 100%)” value is 91.55%.

As to WNRHGI, the “% Binding (mg IgG bound by variant/mg IgG bound by original sequence × 100%)” value was found to be 77.43%.

As to WQ(Cit)HGI (WQ[Cit]HGI) [WQχHGI], the “% Binding (mg IgG bound by variant/mg IgG bound by original sequence × 100%)” value is given as 0.95%.

Consider WQRAGI, for which the “% Binding (mg IgG bound by variant/mg IgG bound by original sequence × 100%)” value was determined as 62.80%.

For WQRHAI, the “% Binding (mg IgG bound by variant/mg IgG bound by original sequence × 100%)” value was determined as 95.43%.

Turning to WQRHGL, the “% Binding (mg IgG bound by variant/mg IgG bound by original sequence × 100%)” value is listed as 99.09%.

On to WQRHGV, for which the “% Binding (mg IgG bound by variant/mg IgG bound by original sequence × 100%)” value turned out to be 96.04%.

Turning to WQRHI, the “% Binding (mg IgG bound by variant/mg IgG bound by original sequence × 100%)” value came out at 86.89%.

A further assay concerns human polyclonal IgG in CHO-S cell culture fluid. The assay can be described thus: Static purification of IgG from CHO cell culture supernatant on peptide-Toyopearl resins, SDS-PAGE densitometry. As to conditions: Gel A, lane FT (flow-through). How it is done: as §1
Characterization of IgG-binding peptide variants WQRHGI (SEQ ID NO:1), MWRGWQ (SEQ ID NO:2), RHLGWF (SEQ ID NO:3), and GWLHQR (SEQ ID NO:4) in competitive conditions: The four selected sequence variants were tested for their ability to purify human IgG from a CHO cell culture supernatant and found largely to mirror their in silico predictions. Even though they seemed to underperform in silico, RHLGWF (SEQ ID NO:3) and GWLHQR (SEQ ID NO:4) were tested alongside WQRHGI (SEQ ID NO:1) and MWRGWQ (SEQ ID NO:2) in these conditions in order to confirm their ability to bind IgG and examine their selectivity as predicted in silico. The feedstock was prepared by spiking human polyclonal IgG into a clarified null CHO-S cell culture fluid to obtain an IgG concentration of 1 mg/mL and a CHO HCP concentration of 0.205 mg/mL. An aliquot of 500 μL was loaded onto each peptide adsorbent in static conditions for 30 min. Following a washing step with PBS to remove loosely bound proteins, a first elution step was conducted using 0.1 M glycine buffer pH 2.5 to remove all bound proteins. Flow through fractions and pH 2.5 elution fractions were loaded neat and analyzed by SDS PAGE (FIGS. 6A-6B). The values of IgG purity in the eluted fractions were determined by densitometric analysis of the corresponding lanes on the gels, and are reported in Table 9.
Turning to RHLGWF, the “% Purity (IgG over total proteins)” value came to 100.00%.

Staying with this assay, now noted: Gel A, lane R (pH 2.5).
For the molecule RHLGWF, the “% Purity (IgG over total eluted proteins)” value is recorded as 52.28%.

The assay is the same for the next values; noted with them: competitive conditions, CHO cell culture supernatant.
As for RHLGWF, the IgG yield result is given as “high IgG yield”.

The assay is the same for the next values; noted with them: competitive conditions, in vitro.
RHLGWF: the “selectivity for IgG over HCPs” value is reported as “non-selective”.

A further assay deals with host cell protein (HCP).
Assay: not given
As to conditions: literature value; cited from earlier work.
For the molecule Ac-HW[Cit]GWV, the “HCP LRV” value was 2.07.

The next assay has as its target human polyclonal IgG (human). The experiment in a line: batch incubation of peptide-Toyopearl resin with human IgG, Bradford of unbound IgG; mg IgG bound relative to MWRGWQ.
Conditions: not given
MWRGGQ [MWRGGQ (SEQ ID NO:26)] yielded a % Binding of 26%.

Regarding MWRGFQ [MWRGFQ (SEQ ID NO:7)], the % Binding worked out at 89.2%.

With MFRGWQ [MFRGWQ (SEQ ID NO:21)], the % Binding worked out at 56.8%.

Regarding MWRGWN [MWRGWN (SEQ ID NO:22)], the % Binding was 18.9%.

The molecule MWRAWQ [MWRAWQ (SEQ ID NO:5)] had a % Binding of 97%.

MWRWQ [MWRWQ (SEQ ID NO:6)]: the % Binding amounted to 91.5%.

Regarding GWRGWQ [GWRGWQ (SEQ ID NO:8)], the % Binding stood at 78.4%.

With MW[Cit]GWQ [MW(Cit)GWQ (SEQ ID NO:25)], the % Binding was 0.48%.

In the case of [Nle]WRGWQ [(NorL)WRGWQ (SEQ ID NO:23)], the % Binding is 74.7%.

A further assay addresses human polyclonal IgG (human). The experiment in a line: batch incubation of peptide-Toyopearl resin with human IgG, Bradford of unbound IgG; mg IgG bound relative to WQRHGI.
Conditions: not given
WNRHGI [WNRHGI (SEQ ID NO:12)] returned a % Binding of 77.4%.

For the molecule WQRAGI [WQRAGI (SEQ ID NO:28)], the % Binding turned out to be 62.8%.

As for WQRHGV [WQRHGV (SEQ ID NO:10)], the % Binding was determined as 96%.

Turning to FQRHGI [FQRHGI (SEQ ID NO:29)], the % Binding amounted to 37.2%.

Molecule WQRHAI [WQRHAI (SEQ ID NO:11)] showed a % Binding of 95.4%.

In turn, WQ[Cit]HGI [WQ(Cit)HGI (SEQ ID NO:27)] came in with a % Binding of 0.95%.

WQRHI [WQRHI (SEQ ID NO:33)] gave a % Binding of 86.9%.

WQRHGL [WQRHGL (SEQ ID NO:9)] returned a % Binding of 99.1%.
